Experimental data reported in patent US10945932B2, “Prebiotic oral care compositions containing carboxylic acids” (COLGATE-PALMOLIVE COMPANY, priority 2013, dated 2021).
Like-named read-outs stand apart in the source and are kept apart here.

Columns and labels:
[1] = test system: Streptococcus salivarius; assay: Biofilm growth assay in BHI, crystal violet; format: cell-based; conditions: S salivarius, 25 μmol/ml
Method: (§1) Late exponential growth phase liquid cultures were prepared by transferring the respective bacterium from blood agar plates to BHI and overnight incubation at 37° C. in an anaerobic atmosphere for A. viscosus, V. parvula, F. nucleatum, P. gingivalis, P. intermedia, T. forsythia, A. naeslundii, and C. sputigena, and in a 5% CO2 environment for S. salivarius, S. sanguinis, S. mitis, A. actinomycetemcomitans, S. mutans, and S. gordonii. […] Additionally, for each bacterium tested, a background control, to correct for background staining, was added. This background control contained the bacterium tested and 0.03 weight % chlorhexidine, as an antiseptic. Plates were incubated as previously described. After 48 hrs the supernatant was removed from the wells of the plates. The wells were washed twice with 1×100 μL/PBS (phosphate buffered saline), fixed for 20 minutes with 96% vol. ethanol (96% vol. solution in water) and the biofilm retained at the bottom of the wells was stained with 1 weight % crystal violet (1 weight % solution in water). […] Quantification of the stained biofilm was performed by measuring the absorbance at 630 nm using a Multiskan Ascent microplate reader (Thermo Scientific).

[2] = test system: Streptococcus sanguinis; assay: Biofilm growth assay in BHI, crystal violet; format: cell-based; conditions: S sanguinis
Method: as §1

[3] = test system: Tannerella forsythia; assay: Biofilm growth assay in BHI, crystal violet; format: cell-based; conditions: T forsythia
Method: as §1

[4] = test system: Veillonella parvula; assay: Biofilm growth assay in BHI, crystal violet; format: cell-based; conditions: V parvula
Method: as §1

[5] = test system: beneficial oral bacteria and pathogenic oral bacteria; assay: Biofilm growth, prebiotic effect over the whole panel; format: cell-based; conditions: 25 μmol/ml; 48 hours; threshold value of 1.6
Method: as §1

[6] = test system: Aggregatibacter actinomycetemcomitans; conditions: A actinomycetemcomitans, BHI
Method: (§2) Late exponential growth phase liquid cultures were prepared by transferring the respective bacterium from blood agar plates to BHI and overnight incubation at 37° C. in an anaerobic atmosphere for A. viscosus, V. parvula, F. nucleatum, P. gingivalis, P. intermedia, T forsythia, A. naeslundii, and C. sputigena, and in a 5% CO2 environment for S. salivarius, S. sanguinis, S. mitis, A. actinomycetemcomitans, S. mutans, S. sobrinus and S. gordonii. Overnight cultures were transferred to BHI and adjusted to a concentration of 1×10^7 CFU/ml (colony forming units per ml) by measuring the optical density at 600 nm (OD600) (BioRad SmartSpec 3000). For each strain, 200 μl of the bacterial suspension was added to a 96-well plate containing 20 μl of the respective carboxylic acids. Final concentrations of the carboxylic acids were set to 5, 10, 20 and 25 μmol/ml. […] Plates were incubated as previously described.
(§3) For each combination of bacterium/carboxylic acid, and for each of their respective controls (i.e. the particular bacterium in the nutritionally rich medium with no carboxylic acid), the optical density was measured at 630 nm (OD630) at 0 h, 24 h and 48 h (Thermo Scientific Multiskan Ascent). Additionally, the OD630 for combinations of bacterium/carboxylic acid grown in a 5% CO2 environment were also measured every hour between 0 h and 9 h.
(§4) The experiment was carried out on three different days (thus providing 3 biological replicas) and on each day the experiment was carried out in quadruple (thus providing 4 technical replicas) for each combination of bacterium with carboxylic acid and for each control. For each day and for each combination, the average (mean) of the values obtained (as detailed above) for the four technical replicas was calculated to provide a single value for each combination on each day.

[7] = test system: Fusobacterium nucleatum; conditions: F nucleatum, BHI
Method: as §2, §3, §4

[8] = test system: Streptococcus sobrinus; conditions: S sobrinus, BHI
Method: as §2, §3, §4

[9] = test system: Tannerella forsythia; conditions: T forsythia, BHI
Method: as §2, §3, §4

[10] = test system: Actinomyces naeslundii; conditions: A naeslundii, BHI
Method: as §2, §3, §4

[11] = test system: Actinomyces viscosus; conditions: A viscosus, BHI
Method: as §2, §3, §4

[12] = test system: Veillonella parvula; conditions: V parvula, BHI
Method: as §2, §3, §4

[13] = test system: beneficial oral bacteria and pathogenic oral bacteria; conditions: over 48 hours, threshold value of 1.25
Description: The beneficial oral bacteria tested were Streptococcus mitis, Streptococcus salivarius, Streptococcus sanguinis, Actinomyces viscosus, Streptococcus gordonii, Capnocytophaga sputigena, Actinomyces naeslundii and Veillonella parvula. The pathogenic oral bacteria tested were Streptococcus mutans, Prevotella intermedia, Porphyromonas gingivalis, Fusobacterium nucleatum, Tannerella forsythia, Aggregatibacter actinomycetemcomitans and Streptococcus sobrinus.
as §2, §3, §4
This value was selected in order to exclude low-stimulating metabolites and avoid false positive results.

## O=C(O)CCC(=O)O [Succinic acid, succinic acid]
[1]
  biofilm growth, OD at 630 nm (crystal violet) at 48 hrs divided by OD of control (control = 1): 1.7869
[2]; 5 μmol/ml
  biofilm growth, OD at 630 nm (crystal violet) at 48 hrs divided by OD of control (control = 1): 3.3955
[2]; 10 μmol/ml
  biofilm growth, OD at 630 nm (crystal violet) at 48 hrs divided by OD of control (control = 1): 2.9778
[2]; 20 μmol/ml
  biofilm growth, OD at 630 nm (crystal violet) at 48 hrs divided by OD of control (control = 1): 1.7748
[2]; 25 μmol/ml
  biofilm growth, OD at 630 nm (crystal violet) at 48 hrs divided by OD of control (control = 1): 1.9952
[3]; 5 μmol/ml
  biofilm growth, OD at 630 nm (crystal violet) at 48 hrs divided by OD of control (control = 1): 0.3223
[3]; 10 μmol/ml
  biofilm growth, OD at 630 nm (crystal violet) at 48 hrs divided by OD of control (control = 1): 0.0000
[3]; 20 μmol/ml
  biofilm growth, OD at 630 nm (crystal violet) at 48 hrs divided by OD of control (control = 1): 0.0000
[3]; 25 μmol/ml
  biofilm growth, OD at 630 nm (crystal violet) at 48 hrs divided by OD of control (control = 1): 0.0000
[4]; 5 μmol/ml
  biofilm growth, OD at 630 nm (crystal violet) at 48 hrs divided by OD of control (control = 1): 0.9059
[4]; 10 μmol/ml
  biofilm growth, OD at 630 nm (crystal violet) at 48 hrs divided by OD of control (control = 1): 1.0118
[4]; 20 μmol/ml
  biofilm growth, OD at 630 nm (crystal violet) at 48 hrs divided by OD of control (control = 1): 1.1681
[4]; 25 μmol/ml
  biofilm growth, OD at 630 nm (crystal violet) at 48 hrs divided by OD of control (control = 1): 1.4334
[5]
  prebiotic effect (biofilm growth): exhibited prebiotic effects
[6]; 5 μmol/ml
  extent of growth, maximal OD630 over 48 hr divided by maximal OD of control (control = 1): 0.6497
[6]; 10 μmol/ml
  extent of growth, maximal OD630 over 48 hr divided by maximal OD of control (control = 1): 0.4197
[6]; 20 μmol/ml
  extent of growth, maximal OD630 over 48 hr divided by maximal OD of control (control = 1): 0.1940
[6]; 25 μmol/ml
  extent of growth, maximal OD630 over 48 hr divided by maximal OD of control (control = 1): 0.1968
[7]; 5 μmol/ml
  extent of growth, maximal OD630 over 48 hr divided by maximal OD of control (control = 1): 0.9913
[7]; 10 μmol/ml
  extent of growth, maximal OD630 over 48 hr divided by maximal OD of control (control = 1): 1.0196
[7]; 20 μmol/ml
  extent of growth, maximal OD630 over 48 hr divided by maximal OD of control (control = 1): 0.2006
[7]; 25 μmol/ml
  extent of growth, maximal OD630 over 48 hr divided by maximal OD of control (control = 1): 0.1511
[8]; 5 μmol/ml
  extent of growth, maximal OD630 over 48 hr divided by maximal OD of control (control = 1): 0.9460
[8]; 10 μmol/ml
  extent of growth, maximal OD630 over 48 hr divided by maximal OD of control (control = 1): 0.8269
[8]; 20 μmol/ml
  extent of growth, maximal OD630 over 48 hr divided by maximal OD of control (control = 1): 0.4744
[8]; 25 μmol/ml
  extent of growth, maximal OD630 over 48 hr divided by maximal OD of control (control = 1): 0.2284
[9]; 5 μmol/ml
  extent of growth, maximal OD630 over 48 hr divided by maximal OD of control (control = 1): 0.9040
[9]; 10 μmol/ml
  extent of growth, maximal OD630 over 48 hr divided by maximal OD of control (control = 1): 0.7937
[9]; 20 μmol/ml
  extent of growth, maximal OD630 over 48 hr divided by maximal OD of control (control = 1): 0.7975
[9]; 25 μmol/ml
  extent of growth, maximal OD630 over 48 hr divided by maximal OD of control (control = 1): 0.8103
[10]; 5 μmol/ml
  extent of growth, maximal OD630 over 48 hr divided by maximal OD of control (control = 1): 0.9975
[10]; 10 μmol/ml
  extent of growth, maximal OD630 over 48 hr divided by maximal OD of control (control = 1): 0.5885
[10]; 20 μmol/ml
  extent of growth, maximal OD630 over 48 hr divided by maximal OD of control (control = 1): 0.2228
[10]; 25 μmol/ml
  extent of growth, maximal OD630 over 48 hr divided by maximal OD of control (control = 1): 0.1840
[11]; 5 μmol/ml
  extent of growth, maximal OD630 over 48 hr divided by maximal OD of control (control = 1): 0.5671
[11]; 10 μmol/ml
  extent of growth, maximal OD630 over 48 hr divided by maximal OD of control (control = 1): 0.3693
[11]; 20 μmol/ml
  extent of growth, maximal OD630 over 48 hr divided by maximal OD of control (control = 1): 0.1827
[11]; 25 μmol/ml
  extent of growth, maximal OD630 over 48 hr divided by maximal OD of control (control = 1): 0.1586
[12]; 5 μmol/ml
  extent of growth, maximal OD630 over 48 hr divided by maximal OD of control (control = 1): 1.1624
[12]; 10 μmol/ml
  extent of growth, maximal OD630 over 48 hr divided by maximal OD of control (control = 1): 1.1922
[12]; 20 μmol/ml
  extent of growth, maximal OD630 over 48 hr divided by maximal OD of control (control = 1): 1.4603
[12]; 25 μmol/ml
  extent of growth, maximal OD630 over 48 hr divided by maximal OD of control (control = 1): 1.3566
[13]; 20 μmol/ml
  prebiotic effect (extent of growth): exhibited prebiotic effects
[13]; 25 μmol/ml
  prebiotic effect (extent of growth): exhibited prebiotic effects
